In patent US20250179299A1, “DYES FOR MONITORING CELL STATES” (SUNNYBROOK RESEARCH INSTITUTE, priority 2022, published 2025):
Where a name gives a salt, the structure may show the parent alone.

Assays:
[1] = system: primary cells (lymphocytes) and cell lines (tumoral); experiment: Fluorescence change of dye-stained cells after treatment with agents that induce cell death; assay type: cell-based; conditions: for fluorescence intensity relative to MT4 and MT5 / signal-to-noise ratio relative to MT4 and MT5: low micromolar staining concentrations (e.g., 1 μM); for change in fluorescence intensity of the dye after treatment with cell-death inducing agents: staurosporine, or AZD 5991 plus A1331852, in cells sensitive to these drugs but not in chemoresistant cells
Protocol: FIG. 1 depicts microscopy images showing fluorescence change of MT2 and reference dyes following drug treatment of primary lymphocytes. Primary lymphocytes were cultured for 24 hrs with 1 μM Staurosporine (STS, pan-kinase inhibitor) or DMSO (solvent control). Cells were stained with Hoechst (left images), tetramethylrhodamine ethyl ester (TMRE) (middle images) and MT2 (right images). Scale bar, 20 μm.
(§1) MCF10A cells were cultured for 24 hrs prior to 72 hr dual treatment with 0.312 μM each of AZD 5991 (Bcl-XL inhibitor) and A1331852 (MCL-1 inhibitor) or DMSO (solvent control). FIG. 2A: cells were stained with Hoechst (left images), TMRE (middle images) and MT3 (right images). Scale bar, 100 μm. FIGS. 2B-E: comparison of the staining pattern of Hoechst, MT3, and TMRE in control and treated MCF10A epithelial breast cells.
(§2) FIG. 3 depicts microscopy images showing fluorescence change of 1 μM MT3 and reference dyes following drug treatment of CAMA-1 luminal-type human breast cancer cells. CAMA-1 cells were cultured for 24 hrs prior to 72 hr dual treatment with 0.312 μM each of AZD 5991 (Bcl-XL inhibitor) and A1331852 (MCL-1 inhibitor) or DMSO (solvent control). Cells were stained with Hoechst (left images), TMRE (middle images) and MT3 (right images). Scale bar, 100 μm.
(§3) FIG. 4 depicts microscopy images showing fluorescence change of MT3 and reference dyes following drug treatment of MCF-7 human epithelial breast adenocarcinoma cells. MCF-7 cells were cultured for 24 hrs prior to 72 hr dual treatment with 0.312 μM each of AZD 5991 (Bcl-XL inhibitor) and A1331852 (MCL-1 inhibitor) or DMSO (solvent control). Cells were stained with Hoechst (left images), TMRE (middle images) and MT3. Scale bar, 100 μm.
as §2, with “FIG. 5” for “FIG. 3”, “of” for “of 1 μM”, “of Zr-75-1 epithelial” for “of CAMA-1 luminal-type human”, “breast ductal carcinoma” for “breast cancer”, “cells. Zr-75-1” for “cells. CAMA-1”
as §3, with “FIG. 6” for “FIG. 4”, “of MDA-MB-231” for “of MCF-7 human”, “cells. MDA-MB-231” for “cells. MCF-7”, “and MT3 (right images).” for “and MT3.”
as §3, with “FIG. 7” for “FIG. 4”, “of MDA-MB-468” for “of MCF-7 human”, “cells. MDA-MB-468” for “cells. MCF-7”
as §2, with “FIG. 8” for “FIG. 3”, “of” for “of 1 μM”, “of T47D epithelial” for “of CAMA-1 luminal-type human”, “breast ductal carcinoma” for “breast cancer”, “cells. T47D” for “cells. CAMA-1”
(§4) These changes in fluorescence emission properties were shared by all dyes tested (MT2-MT5).

[2] = system: MCF-7 breast epithelial cancer cells; experiment: MT2 staining of MCF-7 cells treated with inducers of autophagy, ER stress or apoptosis; assay type: cell-based, human; conditions: 1-5 μM MT2; Rapamycin, Thapsigargin, or TNFα and CHx; excitation 488 nm, emission 520, 600, 690 nm
Protocol: FIG. 9 depicts microscopy images showing fluorescence change of MT2 and reference dyes following drug treatment of MCF-7 human epithelial breast adenocarcinoma cells. MCF-7 cells were cultured for 12 hrs in standard conditions and treated with drugs to induce autophagy (Rapamycin), endoplasmic reticulum stress (Thapsigargin), apoptosis (Tumor Necrosis Factor alpha, TNFα, and Cyclohexamide, CHx), or solvent control (DMSO). Dye MT2 was excited at 488 nm, and emission was simultaneously collected at three wavelengths, 520 nm (Green), 600 nm (Red), and 690 (Far Red) nm.
The dye was excited at 488 nm, and emission was simultaneously collected at three wavelengths, 520 (Green), 600 (Red), and 690 (Far Red) nm. […] Image analysis by machine-learning algorithms trained on measurements of cellular intensity, morphology, and texture features permits to distinguish treatment-specific phenotypic states.

MCF-7 tumoral cells = experiment: Staining of live MCF-7 cells with 1 μM dye (microscopy); assay type: cell-based, human
Protocol: FIGS. 14A-J depict microscopy images showing staining of MCF7 cells with 1 μM of the following dyes: MT3 (FIG. 14A), MT20 (FIG. 14B), MT21 (FIG. 14C), MT22 (FIG. 14D), MT23 (FIG. 14E), MT24 (FIG. 14F), MT25 (FIG. 14G), MT26 (FIG. 14H), MT27 (FIG. 14I), and MT28 (FIG. 14J). Scale bar, 25 μm.
Used at a standard 1 μM concentration, the proposed dyes produce varying staining patterns and intensities. Furthermore, the proposed dyes display fluorescent properties only when labelling cell organelles and can therefore be used directly without washing steps.

[3] = system: Zr-75-1 epithelial breast ductal carcinoma cells; experiment: MT3 staining of drug-treated chemoresistant Zr-75-1 cells; assay type: cell-based; conditions: 72 hr 0.312 μM each AZD 5991 and A1331852
Protocol: as §2, with “FIG. 5” for “FIG. 3”, “of” for “of 1 μM”, “of Zr-75-1 epithelial” for “of CAMA-1 luminal-type human”, “breast ductal carcinoma” for “breast cancer”, “cells. Zr-75-1” for “cells. CAMA-1”
as §4

[4] = system: MCF10A epithelial breast cells; experiment: Staining of control and drug-treated MCF10A cells; assay type: cell-based
Protocol: FIGS. 2A-E depict microscopy images showing fluorescence change of 1 μM MT3 and reference dyes following drug treatment of non-tumorigenic MCF10A epithelial breast cells.
as §1, §4
In the figures, Hoechst stains DNA in the nucleus, and if the nucleus condenses that staining becomes bright (i.e., more dye per unit area). […] In FIG. 2E, the TMRE staining has almost completely disappeared in drug treated cells, whereas MT3 is staining the nuclei. […] FIGS. 7 and 8 have similar lack of staining for TMRE, FIG. 7 is similar to FIG. 4 where the staining with Hoechst and MT3 are mutually exclusive, and FIG. 8 is similar to FIG. 3 where MT3 is staining nuclei where the Hoechst has not condensed.

Molecule	ability to stain live cells (MCF-7 tumoral cells)	cell permeability (MCF-7 tumoral cells)	further results
CC(C)CCN(CCC(C)C)c1ccc2cc(/C=C/c3cc[n+](CCCS(=O)(=O)[O-])c4ccccc34)ccc2c1 [MT2, 4-(2-[6-(diisopentylamino)-2-naphthalenyl]ethenyl)-1-(3-sulfopropyl)quinolinium inner salt]			fluorescence intensity relative to MT4 and MT5 [1]: better fluorescence intensity; signal-to-noise ratio relative to MT4 and MT5 [1]: better signal-to-noise ratios; change in fluorescence intensity of the dye after treatment with cell-death inducing agents [1]: increase in fluorescence intensity; staining pattern across phenotypic states (autophagy, ER stress, apoptosis) [2]: different staining patterns
Cc1cccc(N(c2cccc(C)c2)c2ccc3cc(/C=C/c4cc[n+](CCCS(=O)(=O)[O-])cc4)ccc3c2)c1 [MT3, 4-(2-[6-(dim-tolylamino)-2-naphthalenyl]ethenyl)-1-(3-sulfopropyl) pyridinium Inner Salt]	able to stain live cells	cell-permeable	fluorescence intensity relative to MT4 and MT5 [1]: better fluorescence intensity; signal-to-noise ratio relative to MT4 and MT5 [1]: better signal-to-noise ratios; change in fluorescence intensity of the dye after treatment with cell-death inducing agents [1]: increase in fluorescence intensity; staining of cells with condensed nuclei (Hoechst staining) [3]: did not show bright MT3 staining; staining intensity of drug-treated dying cells ([4]; MCF10A, 1 μM MT3, 72 hr 0.312 μM each AZD 5991 and A1331852, normal cells stained with different intensities): very brightly
Cc1cccc(N(c2cccc(C)c2)c2ccc3cc(/C=C/c4cc[n+](CCCS(=O)(=O)[O-])cc4)c4ccccc4c3c2)c1 [MT20, (E)-3-(4-(2-(3-(di-m-tolylamino)phenanthren-9-yl)vinyl)pyridin-1-ium-1-yl)propane-1-sulfonate]	able to stain live cells	cell-permeable	
Cc1cccc(N(c2cccc(C)c2)c2ccc3cc(/C=C/c4cc[n+](CCCCS(=O)(=O)[O-])cc4)ccc3c2)c1 [MT21, (E)-4-(4-(2-(6-(di-m-tolylamino)naphthalen-2-yl)vinyl)pyridin-1-ium-1-yl)butane-1-sulfonate]	able to stain live cells	cell-permeable	
CC(C)=CCN(CC=C(C)C)c1ccc2cc(/C=C/c3cc[n+](CCCS(=O)(=O)[O-])cc3)ccc2c1 [MT22, (E)-3-(4-(2-(6-(bis(3-methylbut-2-en-1-yl)amino)naphthalen-2-yl)vinyl)pyridin-1-ium-1-yl)propane-1-sulfonate]	able to stain live cells	cell-permeable	
Cc1cccc(N(c2cccc(C)c2)c2ccc3cc(/C=C/c4cc[n+](CCCS(=O)(=O)[O-])cc4F)ccc3c2)c1 [MT23, 4-[(1E)-2-{6-[Bis(3-methylphenyl)amino]naphthalen-2-yl}ethenyl]-3-fluoro-1-(3-sulfopropyl)pyridin-1-ium]		cell-permeable	
Cc1cccc(N(c2cccc(C)c2)c2ccc3cc(/C=C(\F)c4cc[n+](CCCS(=O)(=O)[O-])cc4)ccc3c2)c1 [MT24, 4-[(1Z)-2-{6-[Bis(3-methylphenyl)amino]naphthalen-2-yl}-1-fluoroethenyl]-1-(3-sulfopropyl)pyridin-1-ium]		cell-permeable	
CC(C)=CCN(CC=C(C)C)c1ccc2cc(/C=C/c3cc[n+](CCCS(=O)(=O)[O-])cc3)ccc2c1F [MT25, 4-[(1E)-2-{6-[Bis(3-methylbut-2-en-1-yl)amino]-5-fluoronaphthalen-2-yl}ethenyl]-1-(3-sulfopropyl)pyridin-1-ium]		cell-permeable	
CC(C)=CCN(CC=C(C)C)c1ccc2cc(/C=C/c3cc[n+](CCCS(=O)(=O)[O-])cc3)ccc2c1C(F)(F)F [MT26, 4-[(1E)-2-{6-[Bis(3-methylbut-2-en-1-yl)amino]-5-(trifluoromethyl)naphthalen-2-yl}ethenyl]-1-(3-sulfopropyl)pyridin-1-ium]		cell-permeable	
Cc1cccc(N(c2cccc(C)c2)c2ccc3cc(/C=C/c4cc[n+](CCC[N+](C)(C)C)cc4)ccc3c2)c1 [MT27, 4-[(1E)-2-{6-[Bis(3-methylphenyl)amino]naphthalen-2-yl}ethenyl]-1-[3-(trimethylazaniumyl)propyl]pyridin-1-ium dibromide]	able to stain live cells	cell-permeable	
Cc1cccc(N(c2cccc(C)c2)c2ccc3cc(/C=C/c4cc[n+](CC(O)C[N+](C)(C)CCO)cc4)ccc3c2)c1 (centres unmarked) [MT28, 4-[(1E)-2-{6-[Bis(3-methylphenyl)amino]naphthalen-2-yl}ethenyl]-1-{2-hydroxy-3-[(2 hydroxyethyl)dimethylazaniumyl]propyl}pyridin-1-ium dibromide]	able to stain live cells	cell-permeable	
tetramethylrhodamine ethyl ester [TMRE, reference compound]			staining of drug-treated dying cells relative to control cells ([4]; 72 hr 0.312 μM each AZD 5991 and A1331852 (FIGS. 2E and 3)): low staining
